Reference: the supplement of paper PMC10627819

Legend:
Experiment in all cases: fitness (endpoint OD595 vs no drug) (fraction); higher = more growth
S. aureus DSM 20231 = tested on: S. aureus DSM 20231
How it was run: (§1)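 Fitness is computed from the optical density at which cultures reach stationary phase, divided by the robust mean of no-drug control wells. Any value above 1 is set to 1. Cultures started at OD595 0.01 in 384-well plates with TSB, LB Lennox or CY at 37 °C, and OD595 was read every 30 min for 14 h against a first-reading background.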

S. pneumoniae D39V = tested on: S. pneumoniae D39V
How it was run: as §1

B. subtilis 168 = tested on: B. subtilis 168
How it was run: as §1

S. aureus Newman = tested on: S. aureus Newman
How it was run: as §1
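Note: OD595 on entry to stationary phase over no-drug wells; at most 1.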

CN(C)[C@@H]1C(O)=C(C(N)=O)C(=O)[C@@]2(O)C(O)=C3C(=O)c4c(O)ccc(Cl)c4[C@@](C)(O)[C@H]3C[C@@H]12 [Chlortetracycline] + C[n+]1ccc(-c2cc[n+](C)cc2)cc1 [Paraquat]
fitness, one replicate
Details	partner 1.25 µg/mL	partner 1.5 µg/mL	partner 2.5 µg/mL	partner 3 µg/mL	partner 5 µg/mL	partner 6 µg/mL
S. aureus DSM 20231, first compound 0.006 µg/mL	0.72	–	0.718	–	0.704	–
S. pneumoniae D39V, first compound 0.012 µg/mL	–	0.976	–	≥ 1	–	≥ 1
S. pneumoniae D39V, first compound 0.024 µg/mL	–	0.941	–	0.95	–	0.987
S. pneumoniae D39V, first compound 0.048 µg/mL	–	0.852	–	0.868	–	0.875

fitness
Details	partner 1.25 µg/mL	partner 1.5 µg/mL	partner 2.5 µg/mL	partner 3 µg/mL	partner 5 µg/mL	partner 6 µg/mL
B. subtilis 168, first compound 0.0475 µg/mL	0.92	–	0.877	–	0.839	–
B. subtilis 168, first compound 0.095 µg/mL	0.805	–	0.748	–	0.715	–
B. subtilis 168, first compound 0.19 µg/mL	0.609	–	0.524	–	0.429	–
S. aureus DSM 20231, first compound 0.012 µg/mL	0.568	–	0.597	–	0.574	–
S. aureus DSM 20231, first compound 0.024 µg/mL	0.266	–	0.294	–	0.261	–
S. aureus DSM 20231, first compound 0.048 µg/mL	0.0591	–	0.169	–	0.0904	–
S. pneumoniae D39V, first compound 0.375 µg/mL	–	0.073	–	0.0531	–	0.0597
S. pneumoniae D39V, first compound 0.75 µg/mL	–	0.055	–	0.0649	–	0.0514
S. pneumoniae D39V, first compound 1.5 µg/mL	–	0.048	–	0.0551	–	0.0491

CN(C)[C@@H]1C(O)=C(C(N)=O)C(=O)[C@@]2(O)C(O)=C3C(=O)c4c(O)ccc(Cl)c4[C@@](C)(O)[C@H]3C[C@@H]12 [Chlortetracycline] + CN1C2=CC=CC=C2N=C3C1=CC=CC3=O [Pyocyanin]
one replicate
Details	fitness
S. aureus DSM 20231, first compound 0.006 µg/mL, partner 1.25 µg/mL	0.748
S. aureus DSM 20231, first compound 0.006 µg/mL, partner 2.5 µg/mL	0.692
S. aureus DSM 20231, first compound 0.006 µg/mL, partner 5 µg/mL	0.602
S. pneumoniae D39V, first compound 0.012 µg/mL, partner 0.325 µg/mL	0.893
S. pneumoniae D39V, first compound 0.012 µg/mL, partner 0.65 µg/mL	0.958
S. pneumoniae D39V, first compound 0.024 µg/mL, partner 0.325 µg/mL	0.932
S. pneumoniae D39V, first compound 0.024 µg/mL, partner 0.65 µg/mL	0.885
S. pneumoniae D39V, first compound 0.048 µg/mL, partner 0.325 µg/mL	0.858
S. pneumoniae D39V, first compound 0.048 µg/mL, partner 0.65 µg/mL	0.868

fitness
Details	partner 0.325 µg/mL	partner 0.65 µg/mL	partner 1.25 µg/mL	partner 1.3 µg/mL	partner 2.5 µg/mL	partner 5 µg/mL
B. subtilis 168, first compound 0.0475 µg/mL	–	–	0.837	–	0.825	0.692
B. subtilis 168, first compound 0.095 µg/mL	–	–	0.774	–	0.7	0.597
B. subtilis 168, first compound 0.19 µg/mL	–	–	0.594	–	0.529	0.416
S. aureus DSM 20231, first compound 0.012 µg/mL	–	–	0.487	–	0.43	0.359
S. aureus DSM 20231, first compound 0.024 µg/mL	–	–	0.185	–	0.147	0.121
S. aureus DSM 20231, first compound 0.048 µg/mL	–	–	0.0813	–	0.0826	0.0871
S. pneumoniae D39V, first compound 0.375 µg/mL	0.0228	0.0497	–	0.031	–	–
S. pneumoniae D39V, first compound 0.75 µg/mL	0.0553	0.0813	–	0.104	–	–
S. pneumoniae D39V, first compound 1.5 µg/mL	0.0507	0.0698	–	0.0588	–	–

COc1cccc2c1C(=O)c1c(O)c3c(c(O)c1C2=O)C[C@@](O)(C(=O)CO)C[C@@H]3O[C@H]1C[C@H](N)[C@H](O)[C@H](C)O1 [Doxorubicin] + CO[C@@]12[C@H](COC(N)=O)C3=C(C(=O)C(C)=C(N)C3=O)N1C[C@@H]1N[C@@H]12 [Mitomycin C]
fitness
Details	first compound 0.25 µg/mL	first compound 0.5 µg/mL	first compound 0.625 µg/mL	first compound 1 µg/mL	first compound 1.25 µg/mL	first compound 2.5 µg/mL
S. aureus DSM 20231, partner 0.0156 µg/mL	–	–	0.699	–	0.697	0.668
S. aureus DSM 20231, partner 0.0312 µg/mL	–	–	0.659	–	0.641	0.61
S. aureus DSM 20231, partner 0.0625 µg/mL	–	–	0.52	–	0.496	0.473
S. aureus Newman, partner 0.0156 µg/mL	–	–	0.669	–	0.692	0.672
S. aureus Newman, partner 0.0312 µg/mL	–	–	0.63	–	0.699	0.599
S. aureus Newman, partner 0.0625 µg/mL	–	–	0.531	–	0.507	0.408
S. pneumoniae D39V, partner 0.001075 µg/mL	0.834	0.842	–	0.81	–	–
S. pneumoniae D39V, partner 0.002 µg/mL	0.836	0.822	–	0.696	–	–
S. pneumoniae D39V, partner 0.00215 µg/mL	0.838	0.848	–	0.783	–	–
S. pneumoniae D39V, partner 0.004 µg/mL	0.707	0.664	–	0.632	–	–
S. pneumoniae D39V, partner 0.0043 µg/mL	0.681	0.671	–	0.58	–	–
S. pneumoniae D39V, partner 0.008 µg/mL	0.458	0.435	–	0.404	–	–
